Source: paper PMC10060354, “Discovery of a small molecule ligand of FRS2 that inhibits invasion and tumor growth” (Cellular Oncology, 2022)
Where “and” joins values, the source holds several entries; their conditions need not be identical. Identical values can stand only once. Like-named read-outs stand apart in the source and are kept apart here.

Key:
[1] = biological target: T1, GB1-FRS2-PTB (Homo sapiens, UniProt Q8WU20); experiment: Microscale thermophoresis (MST); type: binding; details: for Kd: GB1-FRS2_PTB; for binding by MST trace analysis (result in words): signal:noise ratio > 5 counts as binding
T1 construct: FRS2-PTB 11-140aa; 6xHis (N); made in house; host or cells: E. coli BL21 (DE3)
T1 sequence (Q8WU20 11-140): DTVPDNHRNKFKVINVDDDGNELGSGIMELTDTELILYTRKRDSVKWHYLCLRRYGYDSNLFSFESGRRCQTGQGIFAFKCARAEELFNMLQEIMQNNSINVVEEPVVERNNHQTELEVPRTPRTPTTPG
Method: Protein labeling for MST was performed with the 2nd Generation BLUE-NHS dye. GB1-FRS2_PTB- was labelled at 20 μM with 60 μM dye and incubated for 30 min in the dark at room temperature. The labelling was performed in the protein buffer without arginine supplementation. It was rebuffered to protein buffer (100 mM sodium phosphate, 50 mM NaCl, 0.5 mM EDTA, 50 mM arginine, 1 mM TCEP, pH 7.0). The dye was subsequently removed by gravitational flow chromatography and the protein concentration determined by UV-spectroscopy. The assay was established with the FGFR_PEP. […] A total volume of 10 μl of 50 nM labelled protein was added to 10 μl of the peptide dilution series for a final labelled protein concentration of 25 nM. The samples were incubated for 15 min at RT. […] Temperature was set to 25 °C. Each measurement was repeated twice. The interaction was measured in duplicates for the non-DMSO-supplemented buffer and in triplicates for DMSO-supplemented buffer. […] The samples were incubated for 15 min, and MST assessed as described above. Each measurement was repeated twice. The interaction was measured in two independent duplicates. […] The mixture was then measured for their initial fluorescence once. MST-experiments were performed with MO.Control vers. 1.6 (NanoTemper Technologies, Munich, Germany) and data analyzed with MO.Analysis vers. 2.3 (NanoTemper Technologies, Munich, Germany). Data was plotted with GraphPad Prism vers. 8.3.0 (GraphPad Software, San Diego, USA).

[2] = test system: AGS; experiment: SIA, collagen I invasion; type: cell-based; details: Homo sapiens
Method: (§1) 1000—2500 cells/well in 100 μl were seeded in 96 well Corning® Spheroid microplate (CLS4520, Sigma-Aldrich) or in cell-repellent 96 well microplate (650,790, Greiner Bio-one). SIA and analysis was performed as described before. In brief: After spheroid formation (24 – 72 h after seeding), 70 µl medium was removed and replaced with the collagen mixture (2.5 mg/ml Pure Col Collagen I (Advanced Biomatrix)), DMEM 1x (from 10 × stock, Sigma, D2429) and 0.4% Sodium bicarbonate (Sigma, S8761)), resulting in a final collagen concentration of 1.75 mg/ml. Embedded spheroids were stimulated with bFGF (100 ng/ml if not otherwise stated), HGF (30 ng /ml) or EGF (20 ng/ml) and distance of invaded cells quantified 24 – 48 h after embedding. Compounds and BGJ398 were added in Dimethylsulfoxid (DMSO) and corresponding DMSO concentrations were used in control samples.

[3] = test system: SKOV3; experiment: SIA, collagen I invasion; type: cell-based; details: Homo sapiens
Method: as §1

[4] = biological target: T2, GB1-FRS2_PTB:FGFR_PEP (Homo sapiens, UniProt Q8WU20); experiment: nanoDSF competition assay with the FGFR peptide; type: binding; details: PTB domain:FGFR peptide 1:5; 500 μM compound
T2 construct: FRS2-PTB 11-140aa; 6xHis (N); made in house; host or cells: E. coli BL21 (DE3) for the protein
T2 sequence (Q8WU20 11-140): T1 sequence (Q8WU20 11-140)
Method: Purified FRS2_PTB or GB1_FRS2_PTB protein tagged with 6 × Histidine residues and the B1 immunoglobulin binding domain of the streptococcal protein G (GB1) were diluted in the protein buffer (100 mM sodium phosphate, 50 mM NaCl, 0.5 mM EDTA, 50 mM arginine, 1 mM TCEP, pH 7.0) to 30 μM, GB-1 to 40 μM. FGFR_PEP, compounds or paracetamol (PARA) as negative control were dissolved at 1 mM in the protein buffer supplemented with 10% DMSO. Compound and protein were mixed at 1:1 volume ratio yielding a final concentration of 15 μM and 20 μM for FRS2_PTB/GB1_FRS2_PTB and GB1, respectively, as well as 500 μM for FGFR_PEP or compounds. The mixture was incubated for 15 min. Each compound was measured in triplicates. Protein controls were measured in six replicates in the beginning. The quality of the screen was assessed by the Z-factor. nanoDSF validation studies were performed on a Prometheus® system in high sensitivity capillaries. Samples were heated with 1 °C/min from 20 to 95 °C. Each compound was measured in triplicates. GB1-FRS2_PTB and GB1 were diluted in the protein buffer (100 mM sodium phosphate, 50 mM NaCl, 0.5 mM EDTA, 50 mM arginine, 1 mM TCEP, pH 7.0) to 30 μM. Compounds 3.3, 3.4, 3.18 as well as the 3.18 analogues were dissolved in 100% DMSO at 50 or 100 mM and further diluted to 1 mM with a final […]. FGFR_PEP was dissolved at 1 mM in the protein buffer supplemented with 10% DMSO. Compound and protein were mixed at 1:1 volume ratio yielding final concentrations of 15 μM protein and 500 μM for the compounds. FGFR_PEP was measured against both GB1-FRS2_PTB and GB1, all other compounds only against GB1-FRS2_PTB. The mixture was incubated for 15 min before measurement. The data was analyzed for both the ratio of signals at 330 and 350 nm and at 350 nm alone. For the competition assays, the PTB domain and the FGFR peptide were mixed at a 1:5 ratio, and ligand competition was assayed in the presence of 500 μM compound.

[5] = test system: DAOY cells; experiment: SIA, EGF-induced cell invasion; type: cell-based, human; details: 10 µM
Method: as §1

[6] = Solubility at the concentration required for the biophysical assays; type: physicochemical; details: 5% DMSO
[7] = test system: human cancer cell lines; experiment: CellTiter-Glo viability (2D culture or 3D spheroids), cell line panel; type: cell-based; details: for reduction of viability: DAOY, AGS and HCT116 cells, between 2.7 and 20 µM, 48 h
Method: Cell viability was determined using CellTiter-Glo® 2D or 3D cell viability assays (#G9242, #G9682, Promega). 500 cells/25 µl were seeded in flat bottom (#781,091, Greiner bio-one) or U-low adhesion (#4516, Corning) 384-well plate, 24 h prior to treatment. Increasing concentrations of compounds are deposited on cells using a HP Digital Drug Dispenser with DMSO total volume normalization. After 48 h, the CellTiter-Glo® 2D or 3D reagent was added (volume/volume) following manufacturer’s instructions. Plates were incubated at RT (room temperature) under agitation for 30 min and luminescence representing the number of viable cells was quantified with a Cytation 3 imaging reader (BioTek®). Experiments were performed independently three times with three technical replicas each.

[8] = read-out: KD, initial fluorescence change analysis

| Kd [1, 8] | binding by MST trace analysis (result in words) [1] | Compound | nanoDSF competition with FGFR peptide (result in words) [4] | effect on EGF-induced cell invasion (result in words) [5] | solubility for biophysical assays (result in words) [6] | reduction of viability [7] | also measured |
| --- | --- | --- | --- | --- | --- | --- | --- |
| 3.1 µM and 4 µM | no binding was detected | COc1ncc(C(C)NC2CC(C)(C)NC(C)(C)C2)cc1Cl (stereo not drawn) [Compound 3.3] |  |  |  |  |  |
| 19.6 µM and 12.8 µM and 12.8 to 19.6 µM | did show binding | CC(C)C[C@@H](CO)NCc1cc(O)c2cc(F)ccc2n1 [Compound 3.14] |  |  |  |  | Kd ([1]; fitting with signal-noise ratio < 5 is considered no binding, read-out: KD, MST trace analysis): 150 µM and 400 µM; inhibition at 10 µM ([2]; 10 µM): ~50%; inhibition at 10 µM ([3]; SK-OV-3, 10 µM): ~50% |
|  |  | O=[N+]([O-])c1c(Cl)cc(O)c2c1C1C=CCC1C(c1ccc(Cl)cc1)N2 (stereo not drawn) [Compound 7] | negative shift in compound-mixed samples | only moderately reduced | soluble in 5% DMSO | more than 50% | EC50 ([2]; 100 ng/ml bFGF): 4.66 µM; EC50 ([3]; SK-OV-3, 100 ng/ml bFGF): 4.5 µM; IC50 ([7]; Homo sapiens, read-out: IC50 of cell viability, all lines): < 20 µM |
|  |  | O=[N+]([O-])c1c(Cl)cc(O)c2c1C1C=CCC1C(c1ccc(Cl)cc1Cl)N2 (stereo not drawn) [Compound 8] | negative shift in compound-mixed samples |  | soluble in 5% DMSO |  |  |
|  |  | N#Cc1c(Cl)cc(O)c2c1C1C=CCC1C(c1ccc(Cl)cc1)N2 (stereo not drawn) [Compound 14] |  | only moderately reduced |  | more than 50% |  |
